Source: ChEMBL document CHEMBL1152118, “Synthesis and pharmacological profile of two novel heterocyclic chromanols, CP-80,798 and CP-85,958, as potent LTD4 receptor antagonists” (Bioorg Med Chem Lett, 1995)

Experiments:
[1] = target: T1, Polyunsaturated fatty acid 5-lipoxygenase (Rattus norvegicus, UniProt P12527); test: Inhibition of 5-Lipoxygenase (5-LO) in rat basophilic leukemia cells; format: cell-based, RBL-1
T1 sequence (P12527 whole entry): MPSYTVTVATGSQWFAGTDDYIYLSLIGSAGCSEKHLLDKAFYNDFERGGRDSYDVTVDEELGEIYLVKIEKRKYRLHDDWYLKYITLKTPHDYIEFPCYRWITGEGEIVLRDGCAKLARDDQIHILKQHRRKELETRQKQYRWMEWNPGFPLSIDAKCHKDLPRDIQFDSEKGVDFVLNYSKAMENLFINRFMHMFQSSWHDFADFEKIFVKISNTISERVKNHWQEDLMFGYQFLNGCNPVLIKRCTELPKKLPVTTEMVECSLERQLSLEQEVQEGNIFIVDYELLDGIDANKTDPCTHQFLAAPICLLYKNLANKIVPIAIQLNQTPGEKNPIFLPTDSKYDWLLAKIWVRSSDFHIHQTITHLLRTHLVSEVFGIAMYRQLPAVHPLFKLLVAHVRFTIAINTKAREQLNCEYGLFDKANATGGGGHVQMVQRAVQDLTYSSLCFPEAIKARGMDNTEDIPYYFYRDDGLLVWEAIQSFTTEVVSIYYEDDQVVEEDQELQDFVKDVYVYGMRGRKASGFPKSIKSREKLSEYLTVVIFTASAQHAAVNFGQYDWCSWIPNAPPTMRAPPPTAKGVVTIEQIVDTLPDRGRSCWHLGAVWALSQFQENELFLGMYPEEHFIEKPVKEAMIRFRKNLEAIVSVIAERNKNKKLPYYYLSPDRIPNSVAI

[2] = system: Cavia porcellus; test: Inhibitory activity against LTD4 challenged pulmonary function test by oral administration; format: functional
[3] = system: Cavia porcellus; test: Inhibitory activity against LTD4 challenged pulmonary function test by oral administration (2 hr preantigen); format: functional
[4] = target: T2, Cysteinyl leukotriene receptor 1 (Cavia porcellus, UniProt Q2NNR5); test: Inhibition of [3H]LTD4 binding to LTD4 receptor in guinea pig lung membranes; format: cell membranes, Membrane
T2 sequence (Q2NNR5 whole entry): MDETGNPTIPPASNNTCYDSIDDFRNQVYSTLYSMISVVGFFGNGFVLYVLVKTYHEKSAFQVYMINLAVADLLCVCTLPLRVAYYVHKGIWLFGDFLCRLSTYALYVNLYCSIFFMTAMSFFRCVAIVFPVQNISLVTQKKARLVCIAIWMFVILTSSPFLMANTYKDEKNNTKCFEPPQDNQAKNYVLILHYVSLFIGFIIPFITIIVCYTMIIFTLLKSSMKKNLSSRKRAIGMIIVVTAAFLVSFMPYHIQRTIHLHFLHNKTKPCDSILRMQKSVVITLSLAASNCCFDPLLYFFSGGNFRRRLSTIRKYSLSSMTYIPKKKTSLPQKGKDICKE

[5] = system: Cavia porcellus; test: Dose required to block the airway obstruction induced by aerosolized antigen by oral administration; format: functional

IC50 [1] [µM]	Ki [4] [µM]	SMILES	ED50 [2] [mg/kg]	ED50 [3] [mg/kg]	ED50 [5] [mg/kg]
1.9	0.65	O[C@@H]1c2cc(OCc3ccc4ccccc4n3)ccc2OC[C@@H]1Cc1cccnc1	3	20	16
–	1.5	O[C@@H]1c2cc(OCc3ccc4ccccc4n3)ccc2CC[C@H]1Cc1ccccc1	–	–	–
–	6.8	CCCCC1CCc2ccc(OCc3ccc4ccccc4n3)cc2C1O (stereo not drawn)	–	–	–
8.1	24	O=C(O)c1cccc(C[C@@H]2COc3ccc(OCc4nc5cc(F)ccc5s4)cc3[C@@H]2O)c1	0.49	0.43	10.8
–	8	CCCCCC(O)c1cccc(OCc2ccc3ccccc3n2)c1 (stereo not drawn) [REV-5901]	–	–	–
